# Reference: paper PMC9127186, “Molecular Basis Underlying Hepatobiliary and Renal Excretion of Phenolic Acids of Salvia miltiorrhiza Roots (Danshen)” (Frontiers in Pharmacology, 2022)
# Biological target: T1, rat Pept1 (Rattus norvegicus, UniProt P51574)
# T1 sequence (P51574 1-710): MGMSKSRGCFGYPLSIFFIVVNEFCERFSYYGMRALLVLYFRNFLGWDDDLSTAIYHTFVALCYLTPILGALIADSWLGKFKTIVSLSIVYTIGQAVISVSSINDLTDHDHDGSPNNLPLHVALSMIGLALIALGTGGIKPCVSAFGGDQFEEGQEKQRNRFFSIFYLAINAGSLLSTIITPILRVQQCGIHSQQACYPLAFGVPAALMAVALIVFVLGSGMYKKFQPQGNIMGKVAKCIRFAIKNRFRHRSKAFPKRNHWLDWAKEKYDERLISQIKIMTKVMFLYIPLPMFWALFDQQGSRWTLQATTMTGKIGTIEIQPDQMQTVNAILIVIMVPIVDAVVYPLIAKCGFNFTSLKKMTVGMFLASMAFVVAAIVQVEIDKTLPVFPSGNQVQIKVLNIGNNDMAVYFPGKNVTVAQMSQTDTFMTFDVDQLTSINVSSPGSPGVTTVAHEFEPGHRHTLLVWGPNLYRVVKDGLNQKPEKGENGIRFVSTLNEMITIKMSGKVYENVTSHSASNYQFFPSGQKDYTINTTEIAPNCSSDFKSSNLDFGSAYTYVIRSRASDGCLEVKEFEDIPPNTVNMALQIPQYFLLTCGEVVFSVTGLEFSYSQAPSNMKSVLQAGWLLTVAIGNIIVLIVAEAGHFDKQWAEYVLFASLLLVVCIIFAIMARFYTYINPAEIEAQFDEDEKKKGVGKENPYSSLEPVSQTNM
# Experiment: Cellular transport assay, HEK-293 cells expressing rat Pept1
# Settings: Danshen phenolic acid at 100 μM final concentration, 10 min, incubation pH 6.0; rat Pept1-transfected vs mock cells
row,Compound,TransportTC/TransportMC ratio (net transport ratio)
1,salvianolic acid B,1.21 ± 0.45
2,"O=C(O)Cc1c(/C=C/C(=O)O[C@H](Cc2ccc(O)c(O)c2)C(=O)O)ccc(O)c1O [Salvianolic acid D, salvianolic acid D]",1.43 ± 0.36
3,"O=C(/C=C/c1ccc(O)c2c1[C@H](C(=O)O)[C@@H](c1ccc(O)c(O)c1)O2)O[C@H](Cc1ccc(O)c(O)c1)C(=O)O [Lithospermic acid, lithospermic acid]",1.31 ± 0.32
4,"O=C(O)c1ccc(O)c(O)c1 [Protocatechuic acid, protocatechuic acid]",1.37 ± 0.36

# Biological target: T2, rat Oatp1a1 (Rattus norvegicus, UniProt P46720)
# T2 sequence (P46720 1-670): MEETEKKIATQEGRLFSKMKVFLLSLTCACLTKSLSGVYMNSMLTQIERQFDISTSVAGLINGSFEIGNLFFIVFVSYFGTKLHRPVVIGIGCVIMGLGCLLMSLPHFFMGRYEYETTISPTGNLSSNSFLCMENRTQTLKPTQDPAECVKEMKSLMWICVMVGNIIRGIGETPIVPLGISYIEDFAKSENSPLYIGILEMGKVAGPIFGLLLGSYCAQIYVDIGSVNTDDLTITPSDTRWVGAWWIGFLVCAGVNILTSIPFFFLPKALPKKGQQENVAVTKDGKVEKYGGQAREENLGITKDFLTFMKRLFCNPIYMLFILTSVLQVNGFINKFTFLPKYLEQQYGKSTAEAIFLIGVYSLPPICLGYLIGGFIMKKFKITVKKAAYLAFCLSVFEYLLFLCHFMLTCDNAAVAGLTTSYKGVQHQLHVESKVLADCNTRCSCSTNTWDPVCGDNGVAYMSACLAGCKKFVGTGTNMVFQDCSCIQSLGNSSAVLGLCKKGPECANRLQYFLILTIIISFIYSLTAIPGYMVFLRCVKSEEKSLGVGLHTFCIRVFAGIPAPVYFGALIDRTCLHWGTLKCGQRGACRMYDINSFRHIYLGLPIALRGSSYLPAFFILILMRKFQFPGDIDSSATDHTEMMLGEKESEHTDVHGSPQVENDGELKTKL
# Experiment: Cellular transport assay, HEK-293 cells expressing rat Oatp1a1
# Settings: Danshen phenolic acid at 100 μM final concentration, 10 min; rat Oatp1a1-transfected vs mock cells
row,Compound,TransportTC/TransportMC ratio (net transport ratio)
1,salvianolic acid B,1.91 ± 0.42
2,"O=C(O)Cc1c(/C=C/C(=O)O[C@H](Cc2ccc(O)c(O)c2)C(=O)O)ccc(O)c1O [Salvianolic acid D, salvianolic acid D]",2.45 ± 1.88
3,"O=C(/C=C/c1ccc(O)c2c1[C@H](C(=O)O)[C@@H](c1ccc(O)c(O)c1)O2)O[C@H](Cc1ccc(O)c(O)c1)C(=O)O [Lithospermic acid, lithospermic acid]",1.41 ± 0.67
4,"O=C(O)c1ccc(O)c(O)c1 [Protocatechuic acid, protocatechuic acid]",1.66 ± 0.77

# Biological target: T3, rat Oct1 (Rattus norvegicus, UniProt Q63089)
# T3 sequence (Q63089 1-556): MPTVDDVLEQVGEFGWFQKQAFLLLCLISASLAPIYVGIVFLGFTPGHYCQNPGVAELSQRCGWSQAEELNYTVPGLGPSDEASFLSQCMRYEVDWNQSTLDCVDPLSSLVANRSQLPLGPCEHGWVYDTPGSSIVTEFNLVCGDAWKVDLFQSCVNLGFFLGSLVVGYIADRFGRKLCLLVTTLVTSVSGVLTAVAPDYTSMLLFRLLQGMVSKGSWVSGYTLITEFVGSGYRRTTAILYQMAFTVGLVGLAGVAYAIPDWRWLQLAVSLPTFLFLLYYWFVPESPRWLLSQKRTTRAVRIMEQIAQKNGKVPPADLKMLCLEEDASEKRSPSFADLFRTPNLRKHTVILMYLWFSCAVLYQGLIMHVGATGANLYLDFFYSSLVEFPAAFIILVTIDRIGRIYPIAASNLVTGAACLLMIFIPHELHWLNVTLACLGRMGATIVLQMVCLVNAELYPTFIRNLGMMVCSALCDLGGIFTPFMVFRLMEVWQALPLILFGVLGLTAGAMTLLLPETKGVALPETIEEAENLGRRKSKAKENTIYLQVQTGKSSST
# Experiment: Cellular transport assay, HEK-293 cells expressing rat Oct1
# Settings: Danshen phenolic acid at 100 μM final concentration, 10 min; rat Oct1-transfected vs mock cells
row,Compound,TransportTC/TransportMC ratio (net transport ratio)
1,salvianolic acid B,0.66 ± 0.17
2,"O=C(O)Cc1c(/C=C/C(=O)O[C@H](Cc2ccc(O)c(O)c2)C(=O)O)ccc(O)c1O [Salvianolic acid D, salvianolic acid D]",1.23 ± 0.54
3,"O=C(/C=C/c1ccc(O)c2c1[C@H](C(=O)O)[C@@H](c1ccc(O)c(O)c1)O2)O[C@H](Cc1ccc(O)c(O)c1)C(=O)O [Lithospermic acid, lithospermic acid]",1.18 ± 0.06
4,"O=C(O)c1ccc(O)c(O)c1 [Protocatechuic acid, protocatechuic acid]",1.19 ± 0.41

# Biological target: human MRP2 (Homo sapiens, UniProt Q92887)
# Experiment: Vesicular transport assay, inside-out membrane vesicles expressing human MRP2
# Settings: not given
# Protocol: Inside-out membrane vesicles (5 mg protein/mL), prepared from insect cells expressing human multidrug resistance-associated protein (MRP) 2, MRP3, MRP4, breast cancer resistance protein (BCRP), bile salt export pump (BSEP), and multidrug resistance protein (MDR) one and rat Mrp2, Mrp4, Bcrp, and Bsep, and vesicles (5 mg protein/mL; prepared from the insect cells expressing no ABC transporter; serving as negative control) were obtained from Genomembrane (Kanazawa, Japan).
# The test Danshen compounds at 100 µM final concentration were separately incubated with the membrane vesicles for 10 min. Buffer C (50 mM MOPS-tris, 70 mM KCl, 7.5 mM MgCl2, pH 7.0) was used for preincubation and incubation, while buffer D (40 mM MOPS-tris, 70 mM KCl, pH 7.0) was used for vesicle washing. The transport rate (pmol/mg protein/min) of the test Danshen compound was calculated using Equation (2): Transport=(CV×VV)/T/WV (2) where C V, V V, T, and W V represent concentration of the compound in vesicular lysates supernatant (μM), volume of the lysates (μL), incubation time (10 min), and amount of vesicle protein amount per well (0.05 mg), respectively. Differential transport of the test Danshen compound between ATP-containing vesicles and AMP-containing vesicles was defined as net transport ratio (TransportATP/TransportAMP ratio). […] All the incubation samples were analyzed by liquid chromatography/mass spectrometry.
# human MRP2, sequence (Q92887 whole entry): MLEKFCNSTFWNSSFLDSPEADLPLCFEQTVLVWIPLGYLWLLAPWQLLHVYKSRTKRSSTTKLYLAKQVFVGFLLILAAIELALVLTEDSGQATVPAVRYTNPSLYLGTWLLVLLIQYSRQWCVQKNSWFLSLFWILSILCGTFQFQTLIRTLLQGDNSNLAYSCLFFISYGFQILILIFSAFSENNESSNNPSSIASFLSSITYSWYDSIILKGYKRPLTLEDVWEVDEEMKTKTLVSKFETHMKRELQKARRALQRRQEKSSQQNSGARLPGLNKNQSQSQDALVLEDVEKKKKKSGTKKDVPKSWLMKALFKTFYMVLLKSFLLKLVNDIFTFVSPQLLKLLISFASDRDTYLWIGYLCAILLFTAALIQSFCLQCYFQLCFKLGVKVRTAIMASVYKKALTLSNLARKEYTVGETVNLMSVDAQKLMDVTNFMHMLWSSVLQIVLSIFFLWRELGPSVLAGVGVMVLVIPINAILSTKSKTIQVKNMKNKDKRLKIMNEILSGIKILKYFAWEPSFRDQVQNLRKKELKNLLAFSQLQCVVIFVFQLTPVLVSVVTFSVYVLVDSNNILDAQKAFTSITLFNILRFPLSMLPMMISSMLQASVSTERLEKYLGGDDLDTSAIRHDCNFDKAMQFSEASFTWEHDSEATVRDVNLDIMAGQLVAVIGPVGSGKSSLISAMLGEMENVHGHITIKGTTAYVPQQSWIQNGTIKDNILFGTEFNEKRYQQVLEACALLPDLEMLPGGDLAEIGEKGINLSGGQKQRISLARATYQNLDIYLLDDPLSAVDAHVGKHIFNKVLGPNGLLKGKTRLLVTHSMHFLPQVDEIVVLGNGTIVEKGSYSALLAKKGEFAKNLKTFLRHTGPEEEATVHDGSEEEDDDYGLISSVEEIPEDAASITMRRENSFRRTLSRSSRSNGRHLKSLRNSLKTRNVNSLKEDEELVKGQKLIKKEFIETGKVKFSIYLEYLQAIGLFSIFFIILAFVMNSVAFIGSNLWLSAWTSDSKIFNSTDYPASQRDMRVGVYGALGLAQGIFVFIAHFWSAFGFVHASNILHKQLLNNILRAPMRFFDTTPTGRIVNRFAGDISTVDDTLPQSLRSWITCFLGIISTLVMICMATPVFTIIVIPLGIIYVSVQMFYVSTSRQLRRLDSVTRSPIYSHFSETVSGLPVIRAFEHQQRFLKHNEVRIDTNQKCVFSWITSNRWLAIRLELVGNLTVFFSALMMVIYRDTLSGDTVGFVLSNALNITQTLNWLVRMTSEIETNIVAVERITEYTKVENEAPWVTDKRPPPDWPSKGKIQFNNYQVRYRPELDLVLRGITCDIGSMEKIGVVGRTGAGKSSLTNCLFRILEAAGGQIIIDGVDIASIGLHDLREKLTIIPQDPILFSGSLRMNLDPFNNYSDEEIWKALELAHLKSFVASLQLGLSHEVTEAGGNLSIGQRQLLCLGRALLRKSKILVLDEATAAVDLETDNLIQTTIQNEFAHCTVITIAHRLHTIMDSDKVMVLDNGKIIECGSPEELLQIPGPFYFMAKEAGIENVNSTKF
row,Compound,substrate of human MRP2
1,salvianolic acid B,substrates
2,"O=C(/C=C/c1ccc(O)c2c1[C@H](C(=O)O)[C@@H](c1ccc(O)c(O)c1)O2)O[C@H](Cc1ccc(O)c(O)c1)C(=O)O [Lithospermic acid, lithospermic acid]",substrates

# Same assay, conditions: Danshen phenolic acid at 100 μM final concentration, 10 min; human MRP2 vesicles
row,Compound,TransportATP/TransportAMP ratio (net transport ratio)
1,salvianolic acid B,6.21 ± 1.32
2,"O=C(O)Cc1c(/C=C/C(=O)O[C@H](Cc2ccc(O)c(O)c2)C(=O)O)ccc(O)c1O [Salvianolic acid D, salvianolic acid D]",1.51 ± 0.73
3,"O=C(/C=C/c1ccc(O)c2c1[C@H](C(=O)O)[C@@H](c1ccc(O)c(O)c1)O2)O[C@H](Cc1ccc(O)c(O)c1)C(=O)O [Lithospermic acid, lithospermic acid]",5.02 ± 1.67
4,"O=C(O)c1ccc(O)c(O)c1 [Protocatechuic acid, protocatechuic acid]",0.94 ± 0.31

# Same assay, conditions: human, 10 min, 100 μM, pH 7
row,Compound,TransportATP/TransportAMP ratio (net transport ratio)
1,"O=C(/C=C/c1ccc(O)c(O)c1)O[C@H](Cc1ccc(O)c(O)c1)C(=O)O [Rosmarinic acid, rosmarinic acid]",1.13 ± 0.34
2,"O=C(/C=C/c1ccc(O)c(O)c1/C=C/c1ccc(O)c(O)c1)O[C@H](Cc1ccc(O)c(O)c1)C(=O)O [Salvianolic acid A, salvianolic acid A]",1.42 ± 0.31
